Results published in patent US20060166182A1, “Tissue and organ preservation, protection and resuscitation” (The Board of Trustees of the University of Ilinois a body …, priority 2002, published 2006).

Tested on: dogs
Test: Myocardial tissue oxygen pressure and pH during cardiac (ventricular) fibrillation in bupivacaine and sham treated dogs
Type: in vivo, dog
Procedure: Non-purpose bred male hounds (22-26 kg) were used. Dogs were fasted overnight. On the day of the example, the dog was anesthetized with 5 mg/kg propofol, intubated and ventilated with 1.5% isoflurane and inspired oxygen concentration of 30%. Catheters were inserted into the femoral artery for blood pressure recording and blood gas sampling, and the femoral vein for fluid and drug administration. Sterile saline was infused intravenously (4 ml·kg^−1·hr^−1) for fluid maintenance.
An incision was made along the left 5th intercostal space and the left ventricle exposed. A Paratrend tissue probe (Codman Inc, Newark, N.J.) was calibrated on the day of the study using precision gases. The probe was 0.5 mm in diameter and 2 sensors measuring myocardial tissue oxygen pressure (PmO2) and myocardial pH (pHm) were contained in the final 2 cm. The void surrounding the pHm sensor was filled with acrylamide gel containing phenol red. Changes in hydrogen ion concentration produce color changes in phenol red, which can be detected by the pH fiber optic sensor. A fluorescence method was used to measure the partial pressure of dissolved or gaseous oxygen for the fiber optic PmO2 sensor. The 0%-90% response times for the PmO2 and pHm sensors were 78 s and 70 s, respectively. The probe was inserted into the myocardium in the region between the first and second diagonal branch of the left anterior descending coronary artery, parallel to the surface of the heart 6 mm below the surface using an 18 gauge angiocatheter as an introducer. Mechanical ventilation was adjusted to maintain arterial pCO2 at 35±2 mmHg and inspired oxygen concentration was maintained at 30%, with the balance nitrogen. Body temperature was maintained at 38° C. using a warming pad.
After equilibration of the myocardial tissue probe for 45 minutes, baseline measures of mean arterial pressure (MAP), heart rate, pmO2 and pHm were recorded and an arterial blood gas sample was measured. Each dog received an intravenous infusion of 10 mg/kg bupivacaine over 10 seconds. […] In a preliminary study (early lipid, EL), intervention at the onset of circulatory collapse included an intravenous infusion of either soy lipid emulsion (Intralipid 20%, Fresenius Kabi Clayton, Clayton, N.C.) n=3, or saline, n=3, each administered as a 4 ml/kg bolus (over 2 minutes), followed by a continuous infusion of 0.5 ml·kg^−1·min^−1 for 10 minutes. The protocol was subsequently modified to better simulate a clinical setting, where the start of the infusion might be delayed by several minutes. In this protocol (delayed lipid, DL), internal cardiac massage alone was continued for 10 minutes, then infusion of either the lipid emulsion (n=6) or saline (n=6) was begun as described above. If sinus rhythm returned, internal cardiac massage was continued until MAP reached 30 mmHg and recovery measures of pmO2 and pHm were recorded when blood pressure returned to within 10% of baseline levels. Dogs were killed at the end of the study using a euthanasia solution. The investigators were not blinded to treatment arm.
Data are reported for the DL experiments as mean±SD. pmO2 and pHm were compared between baseline and subsequent treatments within each group using repeated measures analysis of variance with Tukey's tests for post-hoc comparisons. Differences between groups for each treatment were compared by Student's t-test. The proportion of animals surviving bupivacaine challenge in each group was compared in the DL experiment using a z-test. Significance was taken as p<0.05.
There were no significant differences between groups. […] Tissue pH decreased a similar amount in half the time in sham treated dogs, and the rate of pH decrease was greater in these dogs compared to bupivacaine treated dogs.
In four dogs per group, PmO2 and pHm were allowed to decrease for 15 minutes of cardiac fibrillation at the end of the study.

[1] = dogs made hypotensive by treatment with bupivacaine
[2] = during cardiac fibrillation, mean ± SD
[3] = during cardiac fibrillation, mean ± SD, P < 0.05 compared to sham

## CCCCN1CCCCC1C(=O)Nc1c(C)cccc1C (stereo not drawn) [Bupivacaine, bupivacaine]
15 minutes of cardiac fibrillation at the end of the study, four dogs per group, FIG. 1
  rate of decrease in pHm, increase in PmCO2 and decrease in PmO2 compared to sham: rate of decrease in pHm and increase in PmCO2 was faster in sham treated dogs, but the rate of decrease in PmO2 was slower compared to bupivacaine treated dogs
Dogs made hypotensive by bupivacaine, prolonged hypotension, hypoperfusion and cardiac tissue hypoxia
  acidosis in myocardial tissue: do not develop the expected acidosis in myocardial tissue
[1]
  cardiac tissue pO2 (intramyocardial probe): undetectable
  systemic blood pressure (BP) after bupivacaine: < 40 mmHg
[2]
  PH decrease (myocardial tissue): 0.31 ± 0.08
  PmO2 decrease: 52 ± 16 mmHg
  Rate of decrease (PmO2): 22 ± 5 mmHg/min
  Time (of PmO2 decrease): 2.5 ± 0.9 min
[3]
  Rate of Decrease (myocardial pH): 0.02 ± 0.01 min − 1
  Time (of pH decrease): 13.8 ± 5.1 min
Ventricular fibrillation, Table 2 experiment
  rate of decrease in PmO2 compared to sham treated dogs: higher rate in bupivacaine treated compared to sham treated dogs, but this difference was not significant
Ventricular fibrillation, versus sham
  factor by which the rate of decrease in pH during fibrillation was reduced: four
